According to ChEMBL document CHEMBL1201862, “PubChem BioAssay data set” (2004):
Calls of active or inactive are those of the source.

Tests used:
Vero [1] = test: West Nile virus cytopathic effect inhibition, cell-based (AID 2419); type: functional; conditions: Chlorocebus sabaeus
Vero [2] = test: West Nile virus antiviral activity, cell-based, CPE readout (AID 1621); type: functional; conditions: Chlorocebus sabaeus
[3] = A Cell Based Assay for the Identification of Probe candidate Compounds with Anti- Venezuelan Equine Encephalitis virus. [Related pubchem assays: 2409, 2419, 1621, 2238, 2405, 2024, 2065, 2402, 2414, 1635, 1650, 2244 ]; type: functional
Vero [4] = test: Vero E6 cell cytotoxicity, SAR follow-up, cytotoxicity control for West Nile virus antiviral project, synthesized analogs (AID 2244); type: functional; conditions: Chlorocebus sabaeus
Vero [5] = test: cytotoxicity of synthesized analogs in Vero 76, SAR follow-up, cytotoxicity control for West Nile virus antiviral project, Vero 76 cells (AID 2414); type: functional; conditions: Chlorocebus sabaeus
Vero [6] = test: West Nile virus CPE inhibition, SAR follow-up, cell-based, synthesized analogs (AID 2238); type: functional; conditions: Chlorocebus sabaeus
Vero [7] = test: cytotoxicity of synthesized analogs in Vero cells, SAR follow-up, cytotoxicity control for West Nile virus antiviral project, cell-based, set II (AID 2402); type: functional; conditions: Chlorocebus sabaeus
[8] = HepG2 cell cytotoxicity, dose response, cytotoxicity control for non-replicating M. tuberculosis project (AID 489018); type: functional; conditions: Mycobacterium tuberculosis
cells = type: functional
[9] = molecular target: T1, Apoptotic protease-activating factor 1 (Homo sapiens, UniProt O14727); type: functional
T1 sequence (O14727 whole entry): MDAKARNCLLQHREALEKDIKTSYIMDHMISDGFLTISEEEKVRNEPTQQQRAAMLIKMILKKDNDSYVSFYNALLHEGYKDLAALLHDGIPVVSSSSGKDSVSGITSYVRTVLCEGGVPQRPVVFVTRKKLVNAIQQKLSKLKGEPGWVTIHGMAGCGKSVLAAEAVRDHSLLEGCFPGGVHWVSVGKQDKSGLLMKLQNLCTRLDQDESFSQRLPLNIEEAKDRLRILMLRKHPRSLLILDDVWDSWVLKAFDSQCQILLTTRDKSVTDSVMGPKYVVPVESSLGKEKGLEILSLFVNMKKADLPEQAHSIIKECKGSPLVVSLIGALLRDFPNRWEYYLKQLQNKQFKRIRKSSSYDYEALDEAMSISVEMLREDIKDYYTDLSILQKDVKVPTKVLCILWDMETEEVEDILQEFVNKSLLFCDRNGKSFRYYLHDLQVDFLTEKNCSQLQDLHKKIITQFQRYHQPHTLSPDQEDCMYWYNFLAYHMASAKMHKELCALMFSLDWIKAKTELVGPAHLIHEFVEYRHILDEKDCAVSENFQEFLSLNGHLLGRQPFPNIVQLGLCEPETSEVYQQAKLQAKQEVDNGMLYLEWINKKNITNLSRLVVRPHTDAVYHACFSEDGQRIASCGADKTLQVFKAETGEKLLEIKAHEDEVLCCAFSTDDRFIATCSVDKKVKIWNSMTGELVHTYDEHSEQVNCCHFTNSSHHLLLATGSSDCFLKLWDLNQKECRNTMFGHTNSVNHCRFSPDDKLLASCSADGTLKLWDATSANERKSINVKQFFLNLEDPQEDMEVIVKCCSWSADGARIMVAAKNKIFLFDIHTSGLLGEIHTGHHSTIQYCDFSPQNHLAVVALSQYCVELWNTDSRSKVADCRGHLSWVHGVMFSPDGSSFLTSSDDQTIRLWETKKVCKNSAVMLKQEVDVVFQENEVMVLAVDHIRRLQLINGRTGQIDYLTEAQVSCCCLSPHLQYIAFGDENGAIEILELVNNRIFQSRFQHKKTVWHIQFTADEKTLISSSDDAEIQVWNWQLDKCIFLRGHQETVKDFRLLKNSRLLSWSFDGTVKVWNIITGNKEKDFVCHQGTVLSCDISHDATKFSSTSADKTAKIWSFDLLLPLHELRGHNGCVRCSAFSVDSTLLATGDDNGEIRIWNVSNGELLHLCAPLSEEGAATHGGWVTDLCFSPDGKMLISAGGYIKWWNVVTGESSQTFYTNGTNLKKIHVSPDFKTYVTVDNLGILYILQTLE

[10] = molecular target: T2, Replicative DNA helicase DnaB (Mycobacterium tuberculosis, UniProt P9WMR3); test: DnaB intein splicing inhibitors, dose response, biochemical, cell-free fluorescence (AID 449749); type: functional
T2 sequence (P9WMR3 whole entry): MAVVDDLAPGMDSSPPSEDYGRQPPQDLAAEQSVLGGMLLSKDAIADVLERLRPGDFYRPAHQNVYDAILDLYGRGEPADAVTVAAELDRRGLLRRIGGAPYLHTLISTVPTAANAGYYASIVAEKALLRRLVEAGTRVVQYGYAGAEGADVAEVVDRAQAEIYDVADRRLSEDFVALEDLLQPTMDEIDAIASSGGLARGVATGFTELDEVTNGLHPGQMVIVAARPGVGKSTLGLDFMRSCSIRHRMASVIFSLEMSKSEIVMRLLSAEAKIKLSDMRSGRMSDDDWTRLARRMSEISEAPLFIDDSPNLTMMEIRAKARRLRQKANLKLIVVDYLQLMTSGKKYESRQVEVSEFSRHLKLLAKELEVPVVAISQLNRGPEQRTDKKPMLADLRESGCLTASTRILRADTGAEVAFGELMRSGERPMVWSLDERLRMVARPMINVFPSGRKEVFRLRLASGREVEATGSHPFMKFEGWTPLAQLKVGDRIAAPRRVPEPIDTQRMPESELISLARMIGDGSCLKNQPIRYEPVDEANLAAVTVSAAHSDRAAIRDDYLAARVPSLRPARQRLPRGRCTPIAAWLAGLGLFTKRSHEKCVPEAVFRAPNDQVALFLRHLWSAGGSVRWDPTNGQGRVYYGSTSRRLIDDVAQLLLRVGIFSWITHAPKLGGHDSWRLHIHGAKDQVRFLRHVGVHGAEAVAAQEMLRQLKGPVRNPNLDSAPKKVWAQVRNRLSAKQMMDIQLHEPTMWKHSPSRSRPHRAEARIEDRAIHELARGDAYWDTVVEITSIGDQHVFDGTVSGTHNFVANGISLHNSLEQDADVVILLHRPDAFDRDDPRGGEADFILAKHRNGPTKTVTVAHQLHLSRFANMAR

[11] = molecular target: T3, Ubiquitin-conjugating enzyme E2 N (Homo sapiens, UniProt P61088); type: functional;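 further: Dose-response confirmation in a TR-FRET assay detecting UBC13-driven polyubiquitin chain formation, inhibition measured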
T3 sequence (P61088 whole entry): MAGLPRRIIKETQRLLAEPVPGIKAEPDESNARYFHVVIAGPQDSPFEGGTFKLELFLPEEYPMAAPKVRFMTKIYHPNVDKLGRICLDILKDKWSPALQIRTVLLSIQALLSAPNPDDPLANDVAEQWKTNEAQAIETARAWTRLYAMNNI

[12] = Vero E6 cell cytotoxicity, dose response, cytotoxicity control for non-replicating M. tuberculosis project, secondary assay (AID 492998); type: functional, VeroE6; conditions: Vero C1008
[13] = THP-1 cell cytotoxicity, dose response, cytotoxicity control for non-replicating M. tuberculosis project (AID 489025); type: functional
Nonstructural protein 1 = Nonstructural protein 1 (Influenza A virus, UniProt Q194T2); type: functional, Influenza A virus (A/California/07/2009(H1N1))
Protein RecA = molecular target: T4, Protein RecA (Mycobacterium tuberculosis, UniProt P9WHJ3); test: Fluorescence Cell-Free Homogeneous Dose Retest to Identify Inhibitors of RecA-Intein Splicing Activity. [Related pubchem assays (depositor defined):AID2097, AID2223, AID489010, AID492950]; type: functional
T4 sequence (P9WHJ3 whole entry): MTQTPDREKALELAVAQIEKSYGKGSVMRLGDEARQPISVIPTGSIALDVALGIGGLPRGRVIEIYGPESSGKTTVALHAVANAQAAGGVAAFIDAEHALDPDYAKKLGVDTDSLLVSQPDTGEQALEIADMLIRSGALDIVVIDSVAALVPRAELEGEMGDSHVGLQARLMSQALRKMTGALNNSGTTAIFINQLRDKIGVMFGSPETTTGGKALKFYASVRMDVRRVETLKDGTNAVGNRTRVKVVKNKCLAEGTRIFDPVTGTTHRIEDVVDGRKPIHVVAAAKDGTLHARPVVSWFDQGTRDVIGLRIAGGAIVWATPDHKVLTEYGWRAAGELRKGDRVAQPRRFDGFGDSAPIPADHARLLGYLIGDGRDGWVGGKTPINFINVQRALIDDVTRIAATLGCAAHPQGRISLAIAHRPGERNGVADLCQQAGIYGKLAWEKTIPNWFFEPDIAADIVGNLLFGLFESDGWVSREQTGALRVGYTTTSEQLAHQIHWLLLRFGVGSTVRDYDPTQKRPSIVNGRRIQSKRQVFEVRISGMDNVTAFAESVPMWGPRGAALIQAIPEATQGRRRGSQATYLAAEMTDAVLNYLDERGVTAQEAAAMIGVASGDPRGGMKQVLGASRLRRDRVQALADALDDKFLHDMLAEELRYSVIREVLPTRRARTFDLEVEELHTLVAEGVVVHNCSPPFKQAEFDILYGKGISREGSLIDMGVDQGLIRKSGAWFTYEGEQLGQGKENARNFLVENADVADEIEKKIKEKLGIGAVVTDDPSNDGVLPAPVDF

SUMO-activating enzyme [14] = molecular target: T5, SUMO-activating enzyme (Homo sapiens, UniProt Q9UBT2); test: inhibitors of in vitro SUMOylation cascade, primary screen, biochemical, HTRF, uHTS (AID 2006); type: protein-complex assay
[15] = molecular target: Voltage-dependent T-type calcium channel subunit alpha-1H (Homo sapiens, UniProt O95180); test: Cav3.2 T-type channel inhibitors, cell-based, synthetic library set 1, calcium flux (AID 493022); type: functional
SUMO-activating enzyme [16] = molecular target: T5, SUMO-activating enzyme; test: SUMOylation inhibitor hit validation, confirmation, SUMOylation inhibitor project, biochemical, AlphaScreen (AID 2018); type: functional
[17] = tested on: Streptococcus sp. 'group A'; test: growth inhibition of control SK(-) GAS strain, dose response, counter-screen for streptokinase expression inhibitor project, luminescence, kanamycin, BacTiterGlo, confirmation (AID 1900); type: functional, organism-based
Streptococcus = test: Group A Streptococcus viability loss, dose response, counter-screen for streptokinase expression inhibitor project, luminescence, BacTiterGlo (AID 1915); type: functional, organism-based;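 further: potency for reduction of bacterial viability or growth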
[18] = molecular target: Delta-type opioid receptor (Homo sapiens, UniProt P41143); test: SAR Analysis of Antagonists of the DOR Receptor using an Image-Based Assay - Set 3. [Related pubchem assays (depositor defined):AID1777, AID1785]; type: functional;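 further: U2OS cells expressing DOR1 and beta-arrestin GFP stimulated with 100 nM SNC80; imaging of GFP-tagged beta-arrestin moving into spots after receptor activation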
[19] = molecular target: T6, Kappa-type opioid receptor (Homo sapiens, UniProt P41145); test: SAR analysis of Antagonists of the Kappa Opioid Receptor (KOR) using an Image-Based Assay - Set 4. [Related pubchem assays (depositor defined):AID1777, AID1785]; type: functional
Mu-type opioid receptor = Mu-type opioid receptor (Homo sapiens, UniProt P35372); test: SAR Analysis of Antagonists of the MOR Receptor using an Image-Based Assay - Set 3. [Related pubchem assays (depositor defined):AID1777, AID1785, AID1786, AID1966, AID2133, AID2136, AID2284, AID2285, AID2420]; type: functional
[20] = molecular target: T6, Kappa-type opioid receptor; test: SAR analysis of small molecule antagonists of the kappa opioid receptor via a luminescent beta-arrestin assay - Set 6. [Related pubchem assays (depositor defined):AID1777, AID1778, AID1785, AID1786, AID1966, AID2133, AID2136, AID2285]; type: functional
[21] = molecular target: T6, Kappa-type opioid receptor; test: SAR analysis of small molecule antagonists of the kappa opioid receptor via a luminescent beta-arrestin assay - Set 4. [Related pubchem assays (depositor defined):AID1777, AID1778, AID1785, AID1786, AID1966, AID2133, AID2136, AID2285]; type: functional

T6 sequence (P41145 whole entry): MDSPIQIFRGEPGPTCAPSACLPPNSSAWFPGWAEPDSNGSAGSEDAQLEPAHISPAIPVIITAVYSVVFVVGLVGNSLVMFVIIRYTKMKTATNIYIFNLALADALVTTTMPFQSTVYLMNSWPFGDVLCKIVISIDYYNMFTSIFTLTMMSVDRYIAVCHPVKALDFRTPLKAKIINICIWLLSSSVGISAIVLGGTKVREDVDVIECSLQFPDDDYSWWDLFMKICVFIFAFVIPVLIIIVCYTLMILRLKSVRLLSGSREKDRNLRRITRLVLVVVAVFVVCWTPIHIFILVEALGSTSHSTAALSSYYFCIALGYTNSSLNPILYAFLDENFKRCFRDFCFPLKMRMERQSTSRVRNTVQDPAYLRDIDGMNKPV
T5 sequence (Q9UBE0 whole entry): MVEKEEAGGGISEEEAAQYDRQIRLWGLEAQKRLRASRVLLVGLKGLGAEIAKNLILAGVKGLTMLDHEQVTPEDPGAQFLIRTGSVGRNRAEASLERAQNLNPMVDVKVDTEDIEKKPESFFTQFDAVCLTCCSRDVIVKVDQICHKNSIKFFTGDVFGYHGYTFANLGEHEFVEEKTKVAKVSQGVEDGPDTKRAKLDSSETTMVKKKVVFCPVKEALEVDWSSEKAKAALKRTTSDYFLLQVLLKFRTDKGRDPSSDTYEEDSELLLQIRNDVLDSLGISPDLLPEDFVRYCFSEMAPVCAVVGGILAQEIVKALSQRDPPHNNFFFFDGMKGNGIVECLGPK
T5 sequence (Q9UBT2 whole entry): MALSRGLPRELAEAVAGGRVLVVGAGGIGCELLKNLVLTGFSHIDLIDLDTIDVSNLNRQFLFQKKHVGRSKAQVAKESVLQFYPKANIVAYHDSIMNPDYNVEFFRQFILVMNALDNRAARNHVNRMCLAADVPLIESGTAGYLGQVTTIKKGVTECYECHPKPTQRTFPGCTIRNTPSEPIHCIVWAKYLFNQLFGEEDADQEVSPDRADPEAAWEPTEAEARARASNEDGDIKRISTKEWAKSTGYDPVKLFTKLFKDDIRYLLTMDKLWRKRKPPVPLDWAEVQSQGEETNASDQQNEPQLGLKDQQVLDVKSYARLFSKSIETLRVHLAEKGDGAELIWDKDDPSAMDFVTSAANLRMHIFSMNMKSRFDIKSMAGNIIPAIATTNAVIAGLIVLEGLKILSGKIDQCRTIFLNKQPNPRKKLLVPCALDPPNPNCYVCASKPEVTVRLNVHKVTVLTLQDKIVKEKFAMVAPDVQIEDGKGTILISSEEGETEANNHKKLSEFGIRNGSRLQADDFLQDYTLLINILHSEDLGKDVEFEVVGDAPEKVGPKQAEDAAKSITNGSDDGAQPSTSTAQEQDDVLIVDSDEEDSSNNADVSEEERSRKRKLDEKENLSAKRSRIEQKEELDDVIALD
Voltage-dependent T-type calcium channel subunit alpha-1H, sequence (O95180 whole entry): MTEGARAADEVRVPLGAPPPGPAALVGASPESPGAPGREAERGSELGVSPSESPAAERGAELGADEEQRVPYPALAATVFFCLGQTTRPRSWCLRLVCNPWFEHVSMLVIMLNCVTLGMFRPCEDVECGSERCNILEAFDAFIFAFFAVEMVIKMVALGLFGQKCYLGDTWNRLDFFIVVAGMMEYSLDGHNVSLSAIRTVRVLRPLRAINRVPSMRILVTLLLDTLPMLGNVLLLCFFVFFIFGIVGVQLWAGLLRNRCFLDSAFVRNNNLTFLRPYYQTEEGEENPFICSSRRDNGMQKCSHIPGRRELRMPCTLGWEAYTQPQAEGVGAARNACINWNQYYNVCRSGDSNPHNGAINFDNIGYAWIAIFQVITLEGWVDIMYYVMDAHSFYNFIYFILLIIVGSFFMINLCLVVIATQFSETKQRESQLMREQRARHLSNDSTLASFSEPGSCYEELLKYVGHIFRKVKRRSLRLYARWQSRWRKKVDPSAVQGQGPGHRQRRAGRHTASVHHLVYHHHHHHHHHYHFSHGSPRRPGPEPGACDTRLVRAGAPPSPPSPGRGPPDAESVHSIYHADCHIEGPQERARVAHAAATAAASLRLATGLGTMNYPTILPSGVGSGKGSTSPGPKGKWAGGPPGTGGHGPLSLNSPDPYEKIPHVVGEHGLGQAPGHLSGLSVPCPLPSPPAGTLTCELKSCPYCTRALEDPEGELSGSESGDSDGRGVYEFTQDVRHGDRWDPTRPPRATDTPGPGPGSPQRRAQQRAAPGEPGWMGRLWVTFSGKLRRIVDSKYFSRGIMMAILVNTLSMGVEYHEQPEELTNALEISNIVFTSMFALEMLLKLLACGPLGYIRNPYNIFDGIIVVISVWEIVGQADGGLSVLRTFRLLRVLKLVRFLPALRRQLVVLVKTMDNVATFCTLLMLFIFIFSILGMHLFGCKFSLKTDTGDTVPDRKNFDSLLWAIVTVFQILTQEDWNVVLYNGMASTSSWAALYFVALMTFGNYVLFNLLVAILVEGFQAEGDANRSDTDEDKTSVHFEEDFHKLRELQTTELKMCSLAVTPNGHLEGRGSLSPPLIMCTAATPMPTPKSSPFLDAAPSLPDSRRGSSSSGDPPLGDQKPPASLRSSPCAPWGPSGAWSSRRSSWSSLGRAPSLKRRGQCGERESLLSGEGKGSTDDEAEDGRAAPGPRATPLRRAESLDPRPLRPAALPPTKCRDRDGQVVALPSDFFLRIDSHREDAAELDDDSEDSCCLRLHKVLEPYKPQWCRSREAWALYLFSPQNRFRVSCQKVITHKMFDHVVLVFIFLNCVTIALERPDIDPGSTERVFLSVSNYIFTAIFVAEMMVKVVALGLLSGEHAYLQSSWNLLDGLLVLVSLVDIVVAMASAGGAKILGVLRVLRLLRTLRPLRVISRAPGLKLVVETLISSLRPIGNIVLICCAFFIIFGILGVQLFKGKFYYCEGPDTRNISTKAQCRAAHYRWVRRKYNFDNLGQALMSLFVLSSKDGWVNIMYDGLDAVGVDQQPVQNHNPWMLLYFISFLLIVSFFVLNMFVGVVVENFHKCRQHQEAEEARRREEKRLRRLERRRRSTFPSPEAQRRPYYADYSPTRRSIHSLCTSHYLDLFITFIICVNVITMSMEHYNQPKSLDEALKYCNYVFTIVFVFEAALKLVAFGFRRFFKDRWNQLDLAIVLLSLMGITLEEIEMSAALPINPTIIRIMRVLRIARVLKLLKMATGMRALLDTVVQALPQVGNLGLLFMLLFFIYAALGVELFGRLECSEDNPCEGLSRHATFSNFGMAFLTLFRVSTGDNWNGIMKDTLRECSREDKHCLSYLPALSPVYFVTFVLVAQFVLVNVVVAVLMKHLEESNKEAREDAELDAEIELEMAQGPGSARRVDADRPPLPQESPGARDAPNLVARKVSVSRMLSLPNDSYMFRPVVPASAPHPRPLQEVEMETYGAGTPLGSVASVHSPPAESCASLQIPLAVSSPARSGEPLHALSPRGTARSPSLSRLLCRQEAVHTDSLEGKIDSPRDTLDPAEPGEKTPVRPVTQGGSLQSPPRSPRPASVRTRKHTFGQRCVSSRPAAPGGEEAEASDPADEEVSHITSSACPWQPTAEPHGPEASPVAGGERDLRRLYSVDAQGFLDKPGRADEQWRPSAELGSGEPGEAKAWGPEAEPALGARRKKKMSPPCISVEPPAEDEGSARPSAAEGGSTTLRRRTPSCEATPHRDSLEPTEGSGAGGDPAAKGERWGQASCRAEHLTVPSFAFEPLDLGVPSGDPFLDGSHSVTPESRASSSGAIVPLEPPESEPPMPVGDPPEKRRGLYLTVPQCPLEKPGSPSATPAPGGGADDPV
Mu-type opioid receptor, sequence (P35372 whole entry): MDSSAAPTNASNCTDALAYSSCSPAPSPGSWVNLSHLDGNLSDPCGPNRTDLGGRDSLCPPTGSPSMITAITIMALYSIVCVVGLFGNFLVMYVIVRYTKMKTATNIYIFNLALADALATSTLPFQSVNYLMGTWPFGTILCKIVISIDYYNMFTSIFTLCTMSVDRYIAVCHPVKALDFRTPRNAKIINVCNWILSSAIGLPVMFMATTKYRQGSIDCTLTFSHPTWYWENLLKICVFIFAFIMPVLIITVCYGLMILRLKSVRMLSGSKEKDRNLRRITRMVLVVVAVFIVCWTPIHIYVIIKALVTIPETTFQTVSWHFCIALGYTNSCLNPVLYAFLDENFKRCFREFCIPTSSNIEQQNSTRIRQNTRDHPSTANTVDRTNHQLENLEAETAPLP
Nonstructural protein 1, sequence (Q194T2 whole entry): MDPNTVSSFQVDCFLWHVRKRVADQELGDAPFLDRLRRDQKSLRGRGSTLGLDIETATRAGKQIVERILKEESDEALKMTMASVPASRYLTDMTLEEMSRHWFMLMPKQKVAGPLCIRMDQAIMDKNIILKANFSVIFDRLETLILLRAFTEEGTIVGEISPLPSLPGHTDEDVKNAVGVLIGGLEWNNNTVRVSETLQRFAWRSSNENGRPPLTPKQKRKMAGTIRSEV
Delta-type opioid receptor, sequence (P41143 whole entry): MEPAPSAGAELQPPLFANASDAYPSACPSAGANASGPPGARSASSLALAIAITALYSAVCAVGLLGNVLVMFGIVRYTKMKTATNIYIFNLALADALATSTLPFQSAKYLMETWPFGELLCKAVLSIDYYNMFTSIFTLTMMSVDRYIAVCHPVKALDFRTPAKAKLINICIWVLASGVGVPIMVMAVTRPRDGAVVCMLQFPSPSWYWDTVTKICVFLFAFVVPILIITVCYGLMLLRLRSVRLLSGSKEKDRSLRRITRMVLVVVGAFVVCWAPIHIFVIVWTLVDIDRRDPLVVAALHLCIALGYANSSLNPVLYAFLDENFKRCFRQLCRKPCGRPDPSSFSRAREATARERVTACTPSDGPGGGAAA

With `CCOC(=O)C1(Cc2ccccc2C(F)(F)F)CCN(C2CCN(C(C)C)CC2)CC1` the IC50 (Vero [1]) was > 50 µM (active), the IC50 (Vero [2]) was 18.6 µM (active) and the IC50 [3] was 6.36 µM (active). For the same molecule, the CC50 (Vero [4]) was 21.6 µM (active), the CC50 (Vero [5]) was > 133 µM (active) and the IC50 (Vero [6]) was 36.5 µM (active). For the same molecule, the CC50 (Vero [7]) was 31.5 µM (active).

For `CCOC(=O)C1=C(c2ccccc2)N=C(N)NC1c1ccc(OCc2ccc(C(=O)OC)cc2)cc1` (stereo unspecified), the CC50 [8] was > 20 µM (active), the IC50 (cells) was 9.88 µM (active) and the IC50 [9] was 26.8 µM (active). For the same molecule, the AC50 [10] was 15.6 µM (active), the IC50 [11] was > 20 µM (inactive) and the CC50 [12] was 18.2 µM (active). For the same molecule, the CC50 [13] was 11.8 µM (active), the IC50 (Nonstructural protein 1) was 62.3 µM (active) and the EC50 (Protein RecA) was 11.8 µM (active).

For `O=C(COc1ccc(Cl)cc1)Nc1nnc(-c2ccc3c(c2)CCCC3)o1`, the IC50 (SUMO-activating enzyme [14]) was 48.2 µM (active), the EC50 [15] was 2.8 µM (active) and the IC50 (SUMO-activating enzyme [16]) was > 100 µM (inactive). For the same molecule, the EC50 [17] was 0.489 µM (active) and the EC50 (Streptococcus) was 1.83 µM (active).

For `Cc1ccc(S(=O)(=O)NCc2ccc(C(=O)NCCN3CCN(c4ccccc4)CC3)cc2)cc1`, the IC50 [18] was > 32 µM (inactive), the IC50 [19] was > 32 µM (inactive) and the IC50 (Mu-type opioid receptor) was > 32 µM (inactive). For the same molecule, the IC50 [20] was > 20 µM (inactive) and the IC50 [21] was > 20 µM (inactive).
